Assays:
Aurora kinase B = Aurora kinase B (Homo sapiens, UniProt Q96GD4); test: Inhibition Assay: Kinase assays were performed at Reaction Biology Corp., Malvern, Pa., USA, using the following general procedure:1) Prepare indicated substrate in freshly prepared Base Reaction Buffer (20 mM Hepes pH 7.5, 10 mM MgCl2, 1 mM EGTA, 0.02% Brij35, 0.02 mg/ml BSA, 0.1 mM Na3VO4, 2 mM DTT, 1% DMSO).2) Deliver cofactors (1.5 mM CaCl2, 16 ug/mL Calmodulin, 2 mM MnCl2) to the substrate solution above.3) Deliver indicated kinase into the substrate solution and gently mix4) Deliver varying concentrations of test compound in DMSO into the kinase reaction mixture.5) Deliver 33P-ATP (specific activity 0.01 uCi/uL final) into the reaction mixture to initiate the reaction.6) Incubate kinase reaction for 120 min at room temperature.7) Reactions are spotted onto P81 ion exchange filter paper (Whatman #3698-915)8) Unbound phosphate is removed by washing filters extensively in 0.75% phosphoric acid.9) 33P signal was determined using Typhoon phosphorimagers (GE Healthcare).
[1] = biological target: T1, Receptor-type tyrosine-protein kinase FLT3 (Homo sapiens, UniProt P36888); test: Inhibition Assay: Kinase assays were performed at Reaction Biology Corp., Malvern, Pa., USA, using the following general procedure:1) Prepare indicated substrate in freshly prepared Base Reaction Buffer (20 mM Hepes pH 7.5, 10 mM MgCl2, 1 mM EGTA, 0.02% Brij35, 0.02 mg/ml BSA, 0.1 mM Na3VO4, 2 mM DTT, 1% DMSO).2) Deliver cofactors (1.5 mM CaCl2, 16 ug/mL Calmodulin, 2 mM MnCl2) to the substrate …
T1 sequence (P36888 whole entry): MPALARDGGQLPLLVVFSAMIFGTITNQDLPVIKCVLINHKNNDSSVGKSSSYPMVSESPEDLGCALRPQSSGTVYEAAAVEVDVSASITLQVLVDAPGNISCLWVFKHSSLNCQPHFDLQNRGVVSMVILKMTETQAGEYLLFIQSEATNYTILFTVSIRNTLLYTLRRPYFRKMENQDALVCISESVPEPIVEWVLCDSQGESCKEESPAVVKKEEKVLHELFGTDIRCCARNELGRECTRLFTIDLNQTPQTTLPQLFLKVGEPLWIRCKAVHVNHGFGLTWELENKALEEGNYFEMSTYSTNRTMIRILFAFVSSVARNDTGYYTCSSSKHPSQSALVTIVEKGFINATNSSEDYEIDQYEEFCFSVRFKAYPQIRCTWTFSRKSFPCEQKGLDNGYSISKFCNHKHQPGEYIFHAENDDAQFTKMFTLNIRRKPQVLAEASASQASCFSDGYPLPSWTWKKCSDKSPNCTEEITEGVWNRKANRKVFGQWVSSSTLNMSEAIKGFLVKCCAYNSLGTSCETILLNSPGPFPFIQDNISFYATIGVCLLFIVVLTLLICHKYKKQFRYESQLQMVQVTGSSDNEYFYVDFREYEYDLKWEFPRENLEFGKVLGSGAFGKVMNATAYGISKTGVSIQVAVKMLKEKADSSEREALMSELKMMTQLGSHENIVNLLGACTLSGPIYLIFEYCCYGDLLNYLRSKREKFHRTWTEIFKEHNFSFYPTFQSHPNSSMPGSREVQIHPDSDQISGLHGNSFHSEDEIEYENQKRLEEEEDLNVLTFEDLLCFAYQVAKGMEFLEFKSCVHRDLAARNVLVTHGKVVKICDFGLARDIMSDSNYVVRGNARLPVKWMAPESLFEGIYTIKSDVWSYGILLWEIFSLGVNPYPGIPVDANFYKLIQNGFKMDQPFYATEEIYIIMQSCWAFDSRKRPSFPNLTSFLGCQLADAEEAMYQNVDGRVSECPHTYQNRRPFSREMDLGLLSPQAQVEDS

Chain of Aurora kinase B (Q96GD4 whole entry): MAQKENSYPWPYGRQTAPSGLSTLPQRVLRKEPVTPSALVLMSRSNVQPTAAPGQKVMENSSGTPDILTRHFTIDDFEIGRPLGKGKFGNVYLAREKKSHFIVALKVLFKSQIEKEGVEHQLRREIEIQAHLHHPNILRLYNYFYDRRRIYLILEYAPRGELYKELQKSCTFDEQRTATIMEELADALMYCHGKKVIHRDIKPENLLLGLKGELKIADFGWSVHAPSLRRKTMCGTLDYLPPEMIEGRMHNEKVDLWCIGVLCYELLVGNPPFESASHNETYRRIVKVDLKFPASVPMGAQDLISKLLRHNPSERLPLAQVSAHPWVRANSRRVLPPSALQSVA

For CCc1ccc(-c2nc(C(N)=O)c(-c3ccc(N4CCNC(C)(C)C4)cc3)o2)c2cc[nH]c12, the IC50 (Aurora kinase B) was 12 nM and the IC50 [1] was 0.67 nM.
